Experiment [1] concerns the target T1, G2019S LRRK2 (Homo sapiens, UniProt Q5S007, G2019S).
T1 construct: expressed in transfected cells; host or cells: HEK293 (ATCC CRL-1573), transient transfection, ubiquitin promoter
Nature of the experiment: LRRK2 degradation assay, G2019S LRRK2-HiBit expressed from plasmid in HEK293 cells. In kind it is cell-based. Particulars: HEK293 cells transfected with HiBit-tagged G2019S LRRK2, 24 hours compound incubation. How it is done: (§1) The assay measures the degradation of wildtype and G2019S LRRK2 tagged with a HiBit tag on the C-terminus of the protein that was expressed from a mammalian expression vector, driven by the ubiquitin promoter in HEK293 cells. Each compound dose-response was repeated on two separate days, on three separate plates each day.
(§2) Plasmid Preparation. Transfection mixes were assembled as follows and incubated for 30 minutes at room temperature. In a 15 mL tube, 5.25 mL Opti-MEM (no additions) was mixed with 17 μL Firefly Luciferase plasmid at 1 μg/μL and 158 μL WT plasmid DNA at 1 μg/μL (175 μg total DNA) were mixed by flicking. In a new 15 mL tube, 5.25 mL OptiMEM was mixed with 17 μL Firefly Luciferase plasmid at 1 μg/μL and 158 μL G2019S plasmid DNA at 1 μg/μL (175 μg total DNA) were mixed by flicking. X-tremeGene HP was mixed thoroughly using a vortex. Next, 175 μL was added to each tube and flicked to mix. Both tubes were left to incubate for 30 minutes at room temperature.
(§3) While the transfection mixes were incubating, HEK293 cells (acquired from ATCC; ATCC CRL-1573) were harvested with trypsin. Once cells are detached, the cells were resuspended in 12 mL OptiMEM+5% FBS and transferred to a 50 mL tube. The cells were mixed well and counted. Using OptiMEM+5% FBS, the cells were diluted in two 250 mL conical tubes at 0.71×10^6 cells/mL in 70 mL. One tube was labeled “WT” and the other “G2019S”. The WT and G2019S transfection mixes were added dropwise to the corresponding 250 mL tubes. The tubes were mixed first by pipetting then by swirling. The tubes were incubated at room temperature for at least 5 minutes.
(§4) Each tube was swirled before dispensing and after every three plates. Seventy microliters of cells were dispensed with WT or G2019S DNA to seven plates each. Three plates of each were tested with compound plate one (preparation described below) and three plates of each were tested with compound plate two (preparation described below). The first plate from each set served as a “prime” plate and was not used to test compounds. Each plate was incubated in the hood for 10 minutes before placing in the 37° C. incubator for 24 hours.
(§5) Preparation of Compound and Assay Plates. Two compound plates were made using 96 well polypropylene plates. Compounds were made up at 10 mM and were diluted to 1 mM in 30 μL. Each dose response curve included a well of DMSO, as a negative control and for normalization, and a well of 0.5 μM of Exemplary Compound 4 as a positive control. In addition to seven test compounds, each plate also included a dose response of Exemplary Compound 4. The compound plates were spun down along at 1200 rpm for 2 minutes.
(§6) The two compound plates were then mixed and 2 μL was diluted in intermediate plates having 248 μL of Opti-Mem in each well. Next, 10 μL diluted compounds from the intermediate plates were added to each test plate (three WT and three G2019S plates per compound plate for a total of 12 assay plates). The plates were incubated for 24 hours at 37° C.
(§7) All assay plates and all Nano-Glo Dual-Luciferase Reporter Assay System components (except for the DLR substrate) were equilibrated to room temperature. Next, the luciferase buffer was mixed with the lyophilized amber bottle until fully dissolved, and 75 μL of the luciferase mixture was added to each well of each assay plate. The assay plates were incubated for 10 minutes at room temperature with shaking for at least 5 minutes, and then read on a plate reader.
(§8) Developing Plates and Analyzing Data. One milliliter of DLR substrate and 1 mL LgBiT Protein were added to the Stop and Glo buffer, and 75 μL of the mixture was added to each well of each plate. Optically clear seals were added to each plate and each plate was incubated for 20 minutes with shaking for at least 10 minutes, and then read on a plate reader. […]

Experiment [2] addresses T2, wildtype LRRK2 (Homo sapiens, UniProt Q5S007).
T2 construct: expressed in transfected cells; host or cells: HEK293 (ATCC CRL-1573), transient transfection, ubiquitin promoter
Nature of the experiment: LRRK2 degradation assay, wildtype LRRK2-HiBit expressed from plasmid in HEK293 cells. Particulars: HEK293 cells transfected with HiBit-tagged wildtype LRRK2, 24 hours compound incubation; for Dmax: read-out: **WT Dmax (%); for DC50: read-out: *WT DC50. In kind it is cell-based. How it is done:
as §1, §2, §3, §4, §5, §6, §7, §8
On the technique in general: The HiBiT peptide binds its large partner to form an active luciferase.

SMILES strings stand for the structures.

T1 sequence (Q5S007 whole entry G2019S): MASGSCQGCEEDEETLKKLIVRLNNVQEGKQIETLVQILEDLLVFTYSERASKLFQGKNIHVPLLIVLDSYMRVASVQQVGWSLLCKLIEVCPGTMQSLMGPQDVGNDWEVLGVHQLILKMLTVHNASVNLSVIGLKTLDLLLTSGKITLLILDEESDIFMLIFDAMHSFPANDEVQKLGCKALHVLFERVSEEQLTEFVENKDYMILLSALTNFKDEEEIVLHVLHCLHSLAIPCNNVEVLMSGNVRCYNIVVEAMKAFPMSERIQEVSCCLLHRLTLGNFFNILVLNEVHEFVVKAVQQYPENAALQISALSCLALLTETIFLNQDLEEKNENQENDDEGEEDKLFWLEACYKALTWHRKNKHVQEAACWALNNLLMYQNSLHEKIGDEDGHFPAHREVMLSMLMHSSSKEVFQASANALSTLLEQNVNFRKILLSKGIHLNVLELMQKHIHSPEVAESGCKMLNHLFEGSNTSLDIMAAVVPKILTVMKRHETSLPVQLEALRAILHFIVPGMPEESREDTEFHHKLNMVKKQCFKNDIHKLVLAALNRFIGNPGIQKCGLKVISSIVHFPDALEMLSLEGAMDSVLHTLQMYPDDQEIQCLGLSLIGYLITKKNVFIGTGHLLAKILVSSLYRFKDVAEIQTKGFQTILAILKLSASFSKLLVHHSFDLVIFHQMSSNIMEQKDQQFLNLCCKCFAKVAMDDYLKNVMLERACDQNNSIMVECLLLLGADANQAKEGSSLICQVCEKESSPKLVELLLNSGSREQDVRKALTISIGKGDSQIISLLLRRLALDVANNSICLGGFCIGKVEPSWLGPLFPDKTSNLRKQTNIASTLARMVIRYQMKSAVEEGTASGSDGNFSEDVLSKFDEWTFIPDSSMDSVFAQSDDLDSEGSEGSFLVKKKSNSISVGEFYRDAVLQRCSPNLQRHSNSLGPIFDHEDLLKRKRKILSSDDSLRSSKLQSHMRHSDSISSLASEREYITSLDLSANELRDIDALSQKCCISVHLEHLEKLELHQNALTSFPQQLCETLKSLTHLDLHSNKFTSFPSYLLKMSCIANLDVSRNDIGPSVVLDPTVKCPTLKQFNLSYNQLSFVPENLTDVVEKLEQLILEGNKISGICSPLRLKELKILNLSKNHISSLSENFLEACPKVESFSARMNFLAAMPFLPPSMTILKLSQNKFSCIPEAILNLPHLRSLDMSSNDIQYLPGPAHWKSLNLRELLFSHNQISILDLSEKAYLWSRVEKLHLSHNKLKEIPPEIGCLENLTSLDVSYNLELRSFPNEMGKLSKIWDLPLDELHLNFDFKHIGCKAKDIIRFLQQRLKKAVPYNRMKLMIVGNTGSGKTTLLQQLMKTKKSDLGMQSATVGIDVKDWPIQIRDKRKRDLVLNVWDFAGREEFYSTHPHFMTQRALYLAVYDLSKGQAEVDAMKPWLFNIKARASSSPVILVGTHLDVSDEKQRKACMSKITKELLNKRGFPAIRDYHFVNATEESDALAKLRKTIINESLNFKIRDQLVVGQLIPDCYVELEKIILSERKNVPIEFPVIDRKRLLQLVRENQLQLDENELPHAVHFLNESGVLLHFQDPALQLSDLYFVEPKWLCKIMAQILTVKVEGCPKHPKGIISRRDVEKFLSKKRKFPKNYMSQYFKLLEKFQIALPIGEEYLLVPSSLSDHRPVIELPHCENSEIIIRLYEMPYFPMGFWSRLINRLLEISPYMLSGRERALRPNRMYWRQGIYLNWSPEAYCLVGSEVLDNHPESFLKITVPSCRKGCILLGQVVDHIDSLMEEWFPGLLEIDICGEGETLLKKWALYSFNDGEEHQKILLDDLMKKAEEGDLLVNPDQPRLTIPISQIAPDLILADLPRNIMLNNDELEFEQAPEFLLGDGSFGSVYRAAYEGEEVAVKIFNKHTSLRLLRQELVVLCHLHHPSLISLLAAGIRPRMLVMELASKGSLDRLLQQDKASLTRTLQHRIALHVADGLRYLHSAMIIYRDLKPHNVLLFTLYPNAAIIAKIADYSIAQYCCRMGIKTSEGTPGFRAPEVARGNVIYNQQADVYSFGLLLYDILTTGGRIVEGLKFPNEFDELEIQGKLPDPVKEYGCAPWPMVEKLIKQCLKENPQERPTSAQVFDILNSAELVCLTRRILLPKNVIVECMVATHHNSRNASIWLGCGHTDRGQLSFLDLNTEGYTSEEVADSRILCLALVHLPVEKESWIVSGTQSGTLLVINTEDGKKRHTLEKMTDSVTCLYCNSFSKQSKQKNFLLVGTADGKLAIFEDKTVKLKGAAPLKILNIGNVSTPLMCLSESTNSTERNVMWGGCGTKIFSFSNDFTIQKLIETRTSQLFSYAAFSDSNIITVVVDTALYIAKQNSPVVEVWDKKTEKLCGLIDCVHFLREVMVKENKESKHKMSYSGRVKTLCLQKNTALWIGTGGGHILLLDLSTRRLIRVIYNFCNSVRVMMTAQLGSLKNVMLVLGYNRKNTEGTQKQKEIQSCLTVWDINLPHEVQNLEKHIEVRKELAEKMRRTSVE
T2 sequence (Q5S007 whole entry): as the sequence (Q5S007 whole entry G2019S) above, with S2019G counted along it

The DC50 is the concentration at which degradation of the target reaches its halfway point. One may read the Dmax as the greatest extent of degradation seen. In experiment [1], `CC(C)Oc1ccc2[nH]nc(-c3cc(N4CCN(CC5CCN(CC6CCN(c7ccc8c(c7)C(=O)N(C7CCC(=O)NC7=O)C8=O)CC6)CC5)[C@@H](C)C4)ncn3)c2c1` (stereo partly drawn) [compound 25, 2-(2,6-dioxopiperidin-3-yl)-5-{4-[(4-{[(2S)-2-methyl-4-{6-[5-(propan-2-yloxy)-1H-indazol-3-yl]pyrimidin-4-yl}piperazin-1-yl]methyl}piperidin-1-yl)methyl]piperidin-1-yl}-2,3-dihydro-1H-isoindole-1,3-dione] yielded a half-maximal degradation concentration (DC50) of less than 10 nM and a Dmax not below 70%. For the same compound, in experiment [2], the Dmax is not below 70% and the DC50 was less than 10 nM.

In experiment [1], `CC(C)Oc1cc2c(-c3cc(N4CCN(CCOCCOCCOCCOc5ccc6c(c5)C(=O)N(C5CCC(=O)NC5=O)C6=O)[C@@H](C)C4)ncn3)n[nH]c2cc1F` (stereo partly drawn) [compound 15, 2-(2,6-dioxopiperidin-3-yl)-5-{2-[2-(2-{2-[(2S)-4-{6-[6-fluoro-5-(propan-2-yloxy)-1H-indazol-3-yl]pyrimidin-4-yl}-2-methylpiperazin-1-yl]ethoxy}ethoxy)ethoxy]ethoxy}-2,3-dihydro-1H-isoindole-1,3-dione] yielded a DC50 not below 100 nM and a Dmax of less than 50%. In addition, in experiment [2], the Dmax is less than 50% and the 50% degradation concentration (DC50) is not below 100 nM.

For `CC(C)Oc1ccc2[nH]nc(-c3cc(N4CCN(CCOCCOCCOc5ccc6c(c5)C(=O)N(C5CCC(=O)NC5=O)C6=O)[C@@H](C)C4)ncn3)c2c1` (stereo partly drawn) [compound 8, 2-(2,6-dioxopiperidin-3-yl)-5-[2-(2-{2-[(2S)-2-methyl-4-{6-[5-(propan-2-yloxy)-1H-indazol-3-yl]pyrimidin-4-yl}piperazin-1-yl]ethoxy}ethoxy)ethoxy]-2,3-dihydro-1H-isoindole-1,3-dione], the DC50 in experiment [1] and in experiment [2] was not below 100 nM in each case. Also, the greatest degradation seen (Dmax) in experiment [1] and in experiment [2] was less than 50% in each case.

As for `C[C@H]1CN(c2cc(-c3n[nH]c4ccc(OC5(C)CC5)cc34)ncn2)CCN1CCOCCOCCOCCOc1ccc2c(c1)C(=O)N(C1(C)CCC(=O)NC1=O)C2=O` (stereo partly drawn) [compound 19, 2-(3-methyl-2,6-dioxopiperidin-3-yl)-5-{2-[2-(2-{2-[(2S)-2-methyl-4-{6-[5-(1-methylcyclopropoxy)-1H-indazol-3-yl]pyrimidin-4-yl}piperazin-1-yl]ethoxy}ethoxy)ethoxy]ethoxy}-2,3-dihydro-1H-isoindole-1,3-dione], in experiment [1], the DC50 is 10 to 50 nM and the Dmax is less than 50%. In addition, in experiment [2], the Dmax was less than 50% and the DC50 is not below 100 nM.

In experiment [1], `CC(C)Oc1ccc2[nH]nc(-c3ccnc(N4CCN(CCOCCOCCOCCOc5ccc6c(c5)C(=O)N(C5CCC(=O)NC5=O)C6=O)[C@@H](C)C4)c3)c2c1` (stereo partly drawn) [compound 11, 2-(2,6-dioxopiperidin-3-yl)-5-{2-[2-(2-{2-[(2S)-2-methyl-4-{4-[5-(propan-2-yloxy)-1H-indazol-3-yl]pyridin-2-yl}piperazin-1-yl]ethoxy}ethoxy)ethoxy]ethoxy}-2,3-dihydro-1H-isoindole-1,3-dione] showed a DC50 of 10 to 50 nM and a Dmax of 50 to 70%. In addition, in experiment [2], the Dmax lay within 50 to 70% and the DC50 is not below 100 nM.

Regarding `C[C@H]1CN(c2cc(-c3[nH]nc4ccc(OC5(C)CC5)cc34)ncn2)CCN1CCOc1ccc2c(c1)C(=O)N(C1CCC(=O)NC1=O)C2=O` (stereo partly drawn) [compound 1, 2-(2,6-dioxopiperidin-3-yl)-5-{2-[(2S)-2-methyl-4-{6-[5-(1-methylcyclopropoxy)-1H-indazol-3-yl]pyrimidin-4-yl}piperazin-1-yl]ethoxy}-2,3-dihydro-1H-isoindole-1,3-dione], the DC50 in experiment [1] and in experiment [2] was less than 10 nM in each case. In addition, the Dmax in experiment [1] and in experiment [2] was less than 50% throughout.

Values taken from patent US20250114356A1, “INDAZOLE BASED COMPOUNDS AND ASSOCIATED METHODS OF USE” (Arvinas Operations, Inc., priority 2020, published 2025).
